Measurements taken from patent US8889696B2, “Substituted pyrido[2,3-d]pyrimidin-7(8H)-ones and therapeutic uses thereof” (Temple University—Of The Commonwealth System Of Higher …, priority 2009, dated 2014).

Tests used:
PLK2 [1] = biological target: T1, PLK2 (Homo sapiens (Human), UniProt Q9NYY3); assay: Kinase profiling; format: biochemical; settings: 10 μM ATP
FGFR3 = FGFR3 (Homo sapiens (Human), UniProt P22607); assay: Kinase profiling; format: biochemical; settings: 10 μM ATP
HFL = assay: Viable cell count GI50 (Table 4); format: cell-based, human; settings: Normal, 96 h continuous treatment, trypan blue
Method: (§1) Cells (1×10^5) were plated into 6-well dishes and 24 h later test compound was added at five different concentrations over a 2 log dilution (1-100 μM). The total number of viable cells was determined after 96 h of continuous treatment by staining with trypan blue and counting the number of non-staining cells (viable) remaining in each well using a hemacytometer. The percentage of viable cells remaining was calculated as follows: # viable cells (compound treated)/# viable cells (DMSO treated)*100.

PLK2 [2] = biological target: T1, PLK2; assay: Plk kinase inhibition assay (32P-ATP, casein); format: biochemical; settings: 5 μM ATP, FIG. 1
Method: (§2) Ten ng of recombinant Plk1, Plk2, Plk3 or Plk4 kinase were incubated with the indicated concentrations of compound for 30 minutes at room temperature. Kinase reactions were started by the addition of substrate mix (5 μM ATP, 10 μCi γ^32P-ATP, 1 μg α-casein, 10 mM MgCl2) for 15 minutes at 30° C. Reactions were stopped by 3% phosphoric acid, spotted on PE30 filtermat, washed, dried and subjected to scintillation counting. Data is plotted (after background subtraction) using GraphPad Prism4 software as a non-linear regression plot with variable slope to obtain IC50 values.
as §2, with “Kinase” for “Ten ng of recombinant Plk1, Plk2, Plk3 or Plk4 kinase were incubated with the indicated concentrations of compound for 30 minutes at room temperature. Kinase”

recombinant Plk4 = recombinant Plk4 (Homo sapiens (Human), UniProt O00444); assay: Plk kinase inhibition assay (32P-ATP, casein); format: biochemical
Method: as §2
as §2, with “Kinase” for “Ten ng of recombinant Plk1, Plk2, Plk3 or Plk4 kinase were incubated with the indicated concentrations of compound for 30 minutes at room temperature. Kinase”

recombinant Plk3 = recombinant Plk3 (Homo sapiens (Human), UniProt Q9H4B4); assay: Plk kinase inhibition assay (32P-ATP, casein); format: biochemical; settings: 5 μM ATP, FIG. 1
Chain of recombinant Plk3 (Q9H4B4 whole entry): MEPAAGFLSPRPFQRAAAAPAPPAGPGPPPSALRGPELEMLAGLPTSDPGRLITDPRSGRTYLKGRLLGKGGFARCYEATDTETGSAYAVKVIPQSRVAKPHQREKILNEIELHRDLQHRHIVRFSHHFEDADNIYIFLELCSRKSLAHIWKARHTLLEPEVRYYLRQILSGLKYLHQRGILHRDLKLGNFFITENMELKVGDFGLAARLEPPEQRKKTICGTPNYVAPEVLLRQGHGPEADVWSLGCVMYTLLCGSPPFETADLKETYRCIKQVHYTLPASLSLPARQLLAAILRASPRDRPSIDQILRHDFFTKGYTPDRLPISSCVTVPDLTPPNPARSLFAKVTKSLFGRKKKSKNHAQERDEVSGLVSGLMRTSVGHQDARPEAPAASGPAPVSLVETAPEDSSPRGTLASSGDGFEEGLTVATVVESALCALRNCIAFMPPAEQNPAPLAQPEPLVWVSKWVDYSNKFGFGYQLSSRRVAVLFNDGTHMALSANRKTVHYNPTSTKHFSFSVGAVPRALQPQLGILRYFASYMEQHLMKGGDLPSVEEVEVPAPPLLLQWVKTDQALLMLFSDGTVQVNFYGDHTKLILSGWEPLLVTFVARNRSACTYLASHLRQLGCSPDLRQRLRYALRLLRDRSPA
Method: as §2
as §2, with “Kinase” for “Ten ng of recombinant Plk1, Plk2, Plk3 or Plk4 kinase were incubated with the indicated concentrations of compound for 30 minutes at room temperature. Kinase”

U2OS osteosarcoma cells [3] = assay: Spindle staining of U2OS cells (anti-alpha tubulin, fluorescent microscopy); format: cell-based; settings: 1 uM, 24 hrs
Method: The cells were fixed in 4% paraformaldehyde and stained with anti-alpha tubulin antibodies conjugated with FITC followed by 5 μg/ml […] staining. The coverslips were visualized by fluorescent microscopy using an Olympus microscope at 100× magnification equipped with the Insight digital camera system.

CD-1 female mice = assay: Toxicity study in mice; format: in vivo
Method: . DMSO was used as a placebo. Three CD-1 female mice were used per group. Drugs were administered intraperitoneally at 100 mg/kg. Viability, signs of toxicity and body weight were monitored over the next 7 days. […]. […] Comparative body weight studies could not be carried out for this compound due to the early death of animals. These observations agree with the known toxicity of BI-2536. […]. Following this treatment, 100% survival for >10 days after injection was observed. […]

tumor cells = assay: Apoptosis induction in tumor cells; format: cell-based
GRANTA-519 = assay: Viable cell count GI50 (Table 4); format: cell-based; settings: GRANTA-519, Mantle Cell Lymphoma; 96 h continuous treatment, trypan blue
Method: as §1

BT474 = assay: Viable cell count GI50 (Table 4); format: cell-based; settings: BT474, Breast (Erbb2+); 96 h continuous treatment, trypan blue
Method: as §1

SK-MEL-28 = assay: Viable cell count GI50 (Table 4); format: cell-based; settings: SK-MEL-28, Melanoma; 96 h continuous treatment, trypan blue
Method: as §1

U2OS = assay: Viable cell count GI50 (Table 4); format: cell-based; settings: Osteosarcoma, 96 h continuous treatment, trypan blue
Method: as §1

HELA = assay: Viable cell count GI50 (Table 4); format: cell-based; settings: Cervical, 96 h continuous treatment, trypan blue
Method: as §1

RAJI = assay: Viable cell count GI50 (Table 4); format: cell-based; settings: B-Cell, 96 h continuous treatment, trypan blue
Method: as §1

U87 = assay: Viable cell count GI50 (Table 4); format: cell-based; settings: U87, Glioblastoma; 96 h continuous treatment, trypan blue
Method: as §1

U2OS osteosarcoma cells [4] = assay: Induction of apoptosis in U2OS cells (Caspase Glo, Cell Titer Blue); format: cell-based; settings: 24 hours, FIG. 3
Method: U2OS cells were treated with increasing concentrations of the compound for 24 hours. Cell viability was measured by incubating cells with Cell Titer Blue reagent at 37° C. for 3 hours under 5% CO2. Thereafter the cells were incubated with Caspase Glo reagent for 1 hour at room temperature to assay induction of Caspase 3/7 activity.
Cell viability was measured by incubating cells with Cell Titer Blue reagent (Promega) at 37° C. for 3 hours under 5% CO2. Thereafter the cells were incubated with Caspase Glo reagent (Promega) for 1 hour at room temperature to assay induction of Caspase 3/7 activity.

PLK2 [5] = biological target: T1, PLK2; assay: Affinity analysis with biotinylated compound, streptavidin pull-down from U2OS lysates, anti-Plk2 Western blot; format: binding; settings: FIG. 2
Method: Increasing concentrations of a biotinylated form of the compound were incubated with U2OS lysates. Streptavidin-conjugated agarose beads were utilized to pull down the biotinylated compound in complex with its interacting proteins.
Increasing concentrations of a biotinylated form of the compound were incubated for two hours with U2OS lysates (0.6 mg/ml) derived from the U2OS cell line. Streptavidin-conjugated agarose beads were utilized to pull down the biotinylated compound in complex with its interacting proteins. Pre-cleared streptavidin beads were added to each reaction mixture and incubated overnight at 4° C. The beads were washed and blotted with SDS-PAGE loading buffer and run on a 10% acrylamide denaturing gel. […] Western blotting was performed using an anti-Plk2 antibody.

FLT3 (D835Y) = FLT3 (D835Y) (Homo sapiens (Human), UniProt P36888, D835Y); assay: Kinase profiling; format: biochemical; settings: 10 μM ATP
RSK1 = RSK1 (Homo sapiens (Human), UniProt Q15418); assay: biochemical
Chain of RSK1 (Q15418 whole entry): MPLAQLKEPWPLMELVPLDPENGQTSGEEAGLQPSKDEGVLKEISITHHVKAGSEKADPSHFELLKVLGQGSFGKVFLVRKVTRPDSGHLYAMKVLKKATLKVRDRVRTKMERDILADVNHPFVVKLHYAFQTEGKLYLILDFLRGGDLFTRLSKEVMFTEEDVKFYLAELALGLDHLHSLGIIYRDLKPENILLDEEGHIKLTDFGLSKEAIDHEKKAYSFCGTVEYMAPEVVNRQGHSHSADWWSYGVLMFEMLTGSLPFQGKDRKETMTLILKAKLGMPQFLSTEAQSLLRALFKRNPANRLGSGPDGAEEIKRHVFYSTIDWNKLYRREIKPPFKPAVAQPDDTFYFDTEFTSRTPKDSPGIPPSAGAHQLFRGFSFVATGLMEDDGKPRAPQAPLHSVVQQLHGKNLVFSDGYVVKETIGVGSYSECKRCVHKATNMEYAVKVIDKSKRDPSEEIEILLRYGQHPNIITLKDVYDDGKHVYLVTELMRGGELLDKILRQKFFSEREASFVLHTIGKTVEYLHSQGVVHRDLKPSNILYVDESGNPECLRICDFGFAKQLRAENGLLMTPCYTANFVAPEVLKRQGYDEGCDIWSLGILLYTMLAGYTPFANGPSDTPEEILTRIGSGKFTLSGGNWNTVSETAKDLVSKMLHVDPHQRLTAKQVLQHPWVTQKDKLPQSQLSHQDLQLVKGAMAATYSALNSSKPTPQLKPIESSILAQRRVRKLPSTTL

recombinant Plk1 = recombinant Plk1 (Homo sapiens (Human), UniProt P53350)
Chain of recombinant Plk1 (P53350 whole entry): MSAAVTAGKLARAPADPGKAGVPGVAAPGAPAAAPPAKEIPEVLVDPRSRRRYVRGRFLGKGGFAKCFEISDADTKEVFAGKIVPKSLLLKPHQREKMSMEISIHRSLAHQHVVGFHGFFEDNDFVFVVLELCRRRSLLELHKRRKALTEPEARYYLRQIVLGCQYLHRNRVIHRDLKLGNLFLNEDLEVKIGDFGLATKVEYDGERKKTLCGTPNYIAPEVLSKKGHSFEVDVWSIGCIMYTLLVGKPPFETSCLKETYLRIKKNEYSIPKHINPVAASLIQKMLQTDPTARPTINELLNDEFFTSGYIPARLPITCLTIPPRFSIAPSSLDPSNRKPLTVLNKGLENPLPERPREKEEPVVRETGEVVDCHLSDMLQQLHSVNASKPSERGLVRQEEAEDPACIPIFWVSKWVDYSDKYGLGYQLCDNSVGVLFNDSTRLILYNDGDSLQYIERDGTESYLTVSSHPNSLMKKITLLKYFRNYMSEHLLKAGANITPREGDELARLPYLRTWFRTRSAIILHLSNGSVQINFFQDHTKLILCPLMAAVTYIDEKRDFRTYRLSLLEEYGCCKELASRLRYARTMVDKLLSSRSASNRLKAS

WNK2 = WNK2 (Homo sapiens (Human), UniProt Q9Y3S1); assay: Kinase profiling; format: biochemical; settings: 10 μM ATP
Chain of WNK2 (Q9Y3S1 whole entry): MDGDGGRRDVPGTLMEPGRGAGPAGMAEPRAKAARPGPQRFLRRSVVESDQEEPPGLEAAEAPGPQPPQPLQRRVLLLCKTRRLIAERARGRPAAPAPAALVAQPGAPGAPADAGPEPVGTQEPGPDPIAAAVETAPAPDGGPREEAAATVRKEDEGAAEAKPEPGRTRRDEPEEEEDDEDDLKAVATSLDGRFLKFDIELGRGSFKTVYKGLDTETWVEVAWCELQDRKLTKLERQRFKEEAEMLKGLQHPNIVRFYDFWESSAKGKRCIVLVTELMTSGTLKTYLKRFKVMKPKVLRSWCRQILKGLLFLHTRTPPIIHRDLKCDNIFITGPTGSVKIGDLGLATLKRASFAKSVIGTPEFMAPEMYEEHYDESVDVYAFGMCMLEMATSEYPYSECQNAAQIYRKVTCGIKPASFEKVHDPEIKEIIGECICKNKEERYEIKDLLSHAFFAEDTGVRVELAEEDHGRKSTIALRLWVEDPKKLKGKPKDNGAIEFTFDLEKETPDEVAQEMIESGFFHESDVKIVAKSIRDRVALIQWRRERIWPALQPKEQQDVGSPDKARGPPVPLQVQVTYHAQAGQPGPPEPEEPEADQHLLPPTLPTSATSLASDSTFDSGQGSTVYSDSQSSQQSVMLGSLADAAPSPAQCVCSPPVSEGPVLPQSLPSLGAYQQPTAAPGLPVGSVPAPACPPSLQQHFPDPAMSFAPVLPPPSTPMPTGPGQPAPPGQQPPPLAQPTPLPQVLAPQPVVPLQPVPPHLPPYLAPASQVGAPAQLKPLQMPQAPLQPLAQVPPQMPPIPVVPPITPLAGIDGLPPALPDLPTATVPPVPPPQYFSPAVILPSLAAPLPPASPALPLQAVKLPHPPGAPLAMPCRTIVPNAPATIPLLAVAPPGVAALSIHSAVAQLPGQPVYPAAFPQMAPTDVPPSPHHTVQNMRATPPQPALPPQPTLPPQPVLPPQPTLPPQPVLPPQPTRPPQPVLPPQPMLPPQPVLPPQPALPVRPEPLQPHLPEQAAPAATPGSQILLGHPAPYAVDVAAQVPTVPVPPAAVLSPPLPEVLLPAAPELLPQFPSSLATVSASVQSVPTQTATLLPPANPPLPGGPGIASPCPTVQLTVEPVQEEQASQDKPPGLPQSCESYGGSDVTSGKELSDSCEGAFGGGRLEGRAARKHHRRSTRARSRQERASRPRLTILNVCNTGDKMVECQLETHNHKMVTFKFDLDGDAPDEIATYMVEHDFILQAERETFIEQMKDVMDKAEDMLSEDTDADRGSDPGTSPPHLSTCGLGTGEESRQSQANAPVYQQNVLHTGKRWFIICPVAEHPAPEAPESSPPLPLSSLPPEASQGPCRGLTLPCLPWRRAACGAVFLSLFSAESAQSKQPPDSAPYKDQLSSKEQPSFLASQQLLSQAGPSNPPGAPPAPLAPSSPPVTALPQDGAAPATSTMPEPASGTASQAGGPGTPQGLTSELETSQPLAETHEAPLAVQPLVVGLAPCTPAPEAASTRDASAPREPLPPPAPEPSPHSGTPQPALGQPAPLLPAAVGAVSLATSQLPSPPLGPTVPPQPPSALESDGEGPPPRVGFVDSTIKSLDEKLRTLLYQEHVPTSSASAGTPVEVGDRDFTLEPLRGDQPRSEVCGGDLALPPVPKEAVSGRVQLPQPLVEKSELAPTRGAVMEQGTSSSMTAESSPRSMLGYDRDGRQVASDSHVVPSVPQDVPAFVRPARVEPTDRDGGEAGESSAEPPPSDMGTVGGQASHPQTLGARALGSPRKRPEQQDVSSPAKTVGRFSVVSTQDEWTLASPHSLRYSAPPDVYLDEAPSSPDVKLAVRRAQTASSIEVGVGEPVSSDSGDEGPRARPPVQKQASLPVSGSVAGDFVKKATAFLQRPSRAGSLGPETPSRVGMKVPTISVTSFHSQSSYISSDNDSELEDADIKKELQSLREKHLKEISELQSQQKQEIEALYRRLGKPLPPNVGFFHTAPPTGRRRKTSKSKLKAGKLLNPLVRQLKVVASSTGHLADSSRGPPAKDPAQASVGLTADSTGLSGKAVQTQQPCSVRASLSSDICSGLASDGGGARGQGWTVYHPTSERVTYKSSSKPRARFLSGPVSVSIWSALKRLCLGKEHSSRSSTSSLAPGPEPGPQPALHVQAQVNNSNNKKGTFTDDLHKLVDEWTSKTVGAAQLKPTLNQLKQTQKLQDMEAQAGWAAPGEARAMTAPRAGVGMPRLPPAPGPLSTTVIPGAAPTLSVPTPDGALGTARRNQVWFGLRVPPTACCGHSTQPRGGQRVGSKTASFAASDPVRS

PBK/TOPK = PBK/TOPK (Homo sapiens (Human), UniProt Q96KB5); assay: Kinase profiling; format: biochemical; settings: 10 μM ATP
[6] = 100 mg/kg intraperitoneally, monitored over 7 days

T1 sequence (Q9NYY3 whole entry): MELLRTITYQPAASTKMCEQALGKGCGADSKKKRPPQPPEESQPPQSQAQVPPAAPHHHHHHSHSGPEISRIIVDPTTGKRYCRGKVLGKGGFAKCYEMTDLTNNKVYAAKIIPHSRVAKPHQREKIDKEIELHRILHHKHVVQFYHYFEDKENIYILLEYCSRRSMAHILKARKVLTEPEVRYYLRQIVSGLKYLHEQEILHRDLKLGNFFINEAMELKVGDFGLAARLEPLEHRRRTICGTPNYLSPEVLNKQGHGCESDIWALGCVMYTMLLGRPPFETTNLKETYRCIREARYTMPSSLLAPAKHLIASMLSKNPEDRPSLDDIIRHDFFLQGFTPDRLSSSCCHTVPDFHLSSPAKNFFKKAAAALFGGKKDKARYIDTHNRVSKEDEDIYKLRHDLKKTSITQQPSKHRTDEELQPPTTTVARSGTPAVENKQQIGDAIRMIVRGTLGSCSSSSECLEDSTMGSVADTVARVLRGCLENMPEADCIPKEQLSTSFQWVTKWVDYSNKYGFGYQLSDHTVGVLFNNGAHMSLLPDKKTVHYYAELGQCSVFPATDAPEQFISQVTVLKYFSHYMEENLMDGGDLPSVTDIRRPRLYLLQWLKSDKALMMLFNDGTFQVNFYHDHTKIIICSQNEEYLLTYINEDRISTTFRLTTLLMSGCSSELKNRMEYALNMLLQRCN

Molecule: Cn1c(=O)c(S(=O)(=O)c2ccc(F)cc2F)cc2cnc(Nc3ccc4[nH]ccc4c3)nc21 [Example 39, 2-(1H-indol-5-ylamino)-6-(2,4-difluorophenylsulfonyl)-8-methylpyrido[2,3-d]pyrimidin-7(8H)-one]
- IC50 (PLK2 [1]): 201 nM
- IC50 (FGFR3): 9000 nM
- GI50 (HFL): > 5000 nM
- inhibitory activity against PLK-2 (PLK2 [2]): potent inhibitor
- inhibitory activity against PLK-4 (recombinant Plk4): little or no inhibitory activity
- inhibitory activity against PLK-3 (recombinant Plk3): little or no inhibitory activity
- treated cells mitotically arrested with multipolar spindles (U2OS osteosarcoma cells [3]): greater than 95%
- signs of toxicity (CD-1 female mice; [6]): No signs of toxicity
- survival of mice (CD-1 female mice; [6]): 100%
- weight loss (CD-1 female mice; [6]): No weight loss
- survival of mice (CD-1 female mice; 200 mg/kg, for >10 days after injection): 100%
- concentration inducing apoptosis in tumor cells (tumor cells): approximately 100 nM
- GI50 (GRANTA-519): 40 nM
- GI50 (BT474): 100 nM
- GI50 (SK-MEL-28): 200 nM
- GI50 (U2OS): 50 nM
- GI50 (HELA): 50 nM
- GI50 (RAJI): 50 nM
- GI50 (U87): 200 nM
- cell viability (U2OS osteosarcoma cells [4]; Cell Titer Blue): dose-dependent decrease in cell viability
- induction of apoptosis (U2OS osteosarcoma cells [4]): induces apoptosis of U2OS osteosarcoma cells in a dose-dependent fashion
- competition of Plk2 / compound-biotin interaction by free compound (PLK2 [5]): readily competed out
- IC50 (FLT3 (D835Y)): 8850 nM
- IC50 (RSK1): 4250 nM
- inhibitory activity against PLK-1 (recombinant Plk1): little or no inhibitory activity

Molecule: COC[C@H]1OC(=O)c2coc3c2[C@@]1(C)C1=C(C3=O)[C@@H]2CCC(=O)[C@@]2(C)C[C@H]1OC(C)=O [Wortmanin, wortmanin, reference compound]
- inhibitory activity against PLK-2 (PLK2 [2]): nanomolar inhibitory activity
- inhibitory activity against PLK-3 (recombinant Plk3): nanomolar inhibitory activity
- inhibitory activity against PLK-1 (recombinant Plk1): nanomolar inhibitory activity

Molecule: Staurosporine
- IC50 (WNK2): 8090 nM
- IC50 (PBK/TOPK): 433 nM
